Patent US11225465B2, “Albicidin derivatives, their use and synthesis” (TECHNISCHE UNIVERSITÄT BERLIN, priority 2017, dated 2022)
Values after ≈ are worked out from the molar mass of the structure shown. Where two headings read alike, the source gives them in different places.

Key:
Assay in all cases: Microdilution assay, MIC
Assay type in all cases: cell-based
[1] = system: E. coli DSM 1116; conditions: Escherichia coli, read-out: MIC E. coli DSM1116
Description: (§1) The tests were performed using the micro dilution method.
(§2) The determination of MIC values was performed according to the ninth edition of the Approved Standard M07-A9 (CLSI. Methods for Dilution Antimicrobial Susceptibility Tests for Bacteria That Grow Aerobically; Approved Standard—Ninth Edition. CLSI document M07-A9. Wayne, Pa.: Clinical and Laboratory Standards Institute; 2012.)
(§3) The test was carried out for four different bacterial strains (E. coli DSM 1116 [gram negative], B. subtilis DSM 10 [gram positive], M. luteus DSM 1790 [gram positive], S. typhimurium TA100 [gram negative]). 20 μL of cryo stock of each strain were inoculated in 20 mL of LB media (Lysogeny broth: 10 g/L peptone, 5 g/L yeast extract, 5 g/L NaCl) followed by incubation over night at 37° C., 200 rpm. The test inoculum was adjusted by the 0.5 McFarland Standard (OD625 from 0.08 to 0.1). Within 15 min of preparation, the adjusted inoculum suspension was diluted in MHBII media (BBL T M Mueller-Hinton Broth II, Becton, Dickinson and Company, N.J./USA) so that each well contained approximately 5×10^5 CFU/mL in a final volume of 100 μL. 95 μL of the inoculum were applied per well and 5 μL of the (diluted) antibiotic substance were added.
(§4) Previously the dry antibiotic compounds were dissolved in DMSO (100%) with a concentration of 2560 μg/mL and the resulting stock solutions were further diluted in DMSO (100%). 5 μL of each antibiotic dilution were applied to the microdilution tray to reach final concentrations of 64 μg/mL to 0.008 μg/mL. One row of each well plate was left as a growth control without antibiotic substances and another row of the microdilution tray was used as sterility control (only MHB II-media). The antimicrobial effect of the solvent (DMSO) was tested by adding 5 μL DMSO to several wells without antibiotics.
(§5) Purity check and cell titer control were performed according to International Standard M07-A9 on Mueller-Hinton II Agar (Mueller Hinton II Broth, 15 g/L agar-agar).
(§6) Both microdilution trays and agar plates were incubated at 37° C. for 20 h and subsequently analyzed visually.

[2] = system: S. typhimurium TA100; conditions: Salmonella enterica, 20 h, read-out: MIC S. typhimurium TA100
Description: as §1, §2, §3, §4, §5, §6

[3] = system: Bacillus subtilis DSM10; conditions: read-out: MIC B. subtilis DSM10
Description: as §1, §2, §3, §4, §5, §6

[4] = system: Micrococcus luteus DSM1790; conditions: read-out: MIC M. luteus DSM1790
Description: as §1, §2, §3, §4, §5, §6

SMILES | MIC ([1]; DSM1116, 20 h) | MIC [2] | MIC ([3]; DSM10, 20 h) | MIC ([4]; DSM1790, 20 h) | MIC ([1]; DSM1116, gram negative, MHBII media, 37° C., 20 h) | MIC ([2]; gram negative, MHBII media, 37° C.) | MIC ([3]; DSM10, gram positive, MHBII media, 37° C., 20 h) | MIC ([4]; DSM1790, gram positive, MHBII media, 37° C., 20 h)
COc1c(NC(=O)c2ccc(NC(=O)c3ccc(NC(=O)[C@H](CC#N)NC(=O)c4ccc(NC(=O)/C(C)=C/c5ccc(O)cc5)cc4)cc3)c(OC)c2O)ccc(C(=O)O)c1O [Albicidin] | 63 µg/mL (≈ 74.7 µM) | 63 µg/mL (≈ 74.7 µM) | 250 µg/mL (≈ 297 µM) | 1000 µg/mL (≈ 1190 µM) | – | – | – | –
COc1c(NC(=O)c2ccc(NC(=O)c3ccc(NC(=O)C(CN4CCOCC4)NC(=O)c4ccc(NC(=O)/C(C)=C/c5ccc(O)cc5)cc4)cc3)c(OC)c2O)ccc(C(=O)O)c1O [Compound 4, L-Morpholino-Albicidin] | 500 µg/mL (≈ 554 µM) | 63 µg/mL (≈ 69.8 µM) | 250 µg/mL (≈ 277 µM) | 8000 µg/mL (≈ 8860 µM) | – | – | – | –
COc1c(NC(=O)c2ccc(NC(=O)c3ccc(NC(=O)C(Cc4cn(C)cn4)NC(=O)c4ccc(NC(=O)/C(C)=C/c5ccc(O)cc5)cc4)cc3)c(OC)c2O)ccc(C(=O)O)c1O [Compound 5, L-Methyl-His-Albicidin] | 125 µg/mL (≈ 139 µM) | 63 µg/mL (≈ 70.2 µM) | 500 µg/mL (≈ 557 µM) | 4000 µg/mL (≈ 4450 µM) | – | – | – | –
COc1c(NC(=O)c2ccc(NC(=O)c3ccc(NC(=O)C4(NC(=O)c5ccc(NC(=O)/C(C)=C/c6ccc(O)cc6)cc5)CCN(C)CC4)cc3)c(OC)c2O)ccc(C(=O)O)c1O [Compound 6, N-Methylpiperidino-Albicidin] | 2000 µg/mL (≈ 2260 µM) | 2000 µg/mL (≈ 2260 µM) | ≥ 8000 µg/mL | ≥ 8000 µg/mL | – | – | – | –
COc1c(NC(=O)c2ccc(NC(=O)c3ccc(NC(=O)[C@H](Cc4ccccn4)NC(=O)c4ccc(NC(=O)/C(C)=C/c5ccc(O)cc5)cc4)cc3)c(OC)c2O)ccc(C(=O)O)c1O [Compound 7, L-2-Py-Albicidin] | 250 µg/mL (≈ 279 µM) | 125 µg/mL (≈ 140 µM) | 250 µg/mL (≈ 279 µM) | 2000 µg/mL (≈ 2230 µM) | – | – | – | –
COc1c(NC(=O)c2ccc(NC(=O)c3ccc(NC(=O)[C@H](Cc4cccnc4)NC(=O)c4ccc(NC(=O)/C(C)=C/c5ccc(O)cc5)cc4)cc3)c(OC)c2O)ccc(C(=O)O)c1O [Compound 8] | 250 µg/mL (≈ 279 µM) | – | 500 µg/mL (≈ 559 µM) | 1000 µg/mL (≈ 1120 µM) | – | – | – | –
COc1c(NC(=O)c2ccc(NC(=O)c3ccc(NC(=O)[C@H](Cc4ccncc4)NC(=O)c4ccc(NC(=O)/C(C)=C/c5ccc(O)cc5)cc4)cc3)c(OC)c2O)ccc(C(=O)O)c1O [Compound 9] | 500 µg/mL (≈ 559 µM) | 125 µg/mL (≈ 140 µM) | 2000 µg/mL (≈ 2230 µM) | 8000 µg/mL (≈ 8940 µM) | – | – | – | –
C#CCOc1ccc(/C=C(\C)C(=O)Nc2ccc(C(=O)NC(CC3(C)N=N3)C(=O)Nc3ccc(C(=O)Nc4ccc(C(=O)Nc5ccc(C(=O)O)c(O)c5OC)c(O)c4OC)cc3)cc2)cc1 (centres unmarked) [Compound 10] | 63 µg/mL (≈ 69.2 µM) | ≤ 16 µg/mL | 125 µg/mL (≈ 137 µM) | 250 µg/mL (≈ 275 µM) | – | – | – | –
C#CCOc1ccc(C(=O)Nc2ccc(C(=O)NC(CC3(C)N=N3)C(=O)Nc3ccc(C(=O)Nc4ccc(C(=O)Nc5ccc(C(=O)O)c(O)c5OC)c(O)c4OC)cc3)cc2)cc1 (centres unmarked) [Compound 11] | 63 µg/mL (≈ 72.4 µM) | 16 µg/mL (≈ 18.4 µM) | 125 µg/mL (≈ 144 µM) | 125 µg/mL (≈ 144 µM) | – | – | – | –
C/C(=C\c1ccc(O)cc1)C(=O)Nc1ccc(C(=O)N[C@@H](CC#N)C(=O)Nc2ccc(C(=O)Nc3ccc(C(=O)Nc4ccc(C(=O)O)c(O)c4)c(O)c3)cc2)cc1 [Compound 12, HMZS-pABA-L-Cya-pABA-HpABA-HpABA-OH] | 16000 µg/mL (≈ 20400 µM) | 4000 µg/mL (≈ 5110 µM) | – | 32000 µg/mL (≈ 40900 µM) | – | – | – | –
COc1c(NC(=O)c2ccc(NC(=O)c3ccc(NC(=O)[C@H](CC#N)NC(=O)c4ccc(NC(=O)/C(C)=C/c5ccc(O)cc5)cc4)c(O)c3)c(OC)c2O)ccc(C(=O)O)c1O [Compound 13] | 2000 µg/mL (≈ 2330 µM) | 500 µg/mL (≈ 582 µM) | 2000 µg/mL (≈ 2330 µM) | – | – | – | – | –
COc1c(NC(=O)c2ccc(NC(=O)c3ccc(NC(=O)[C@H](CC#N)NC(=O)c4ccc(NC(=O)/C(C)=C/c5ccc(O)cc5)cc4)cc3O)c(OC)c2O)ccc(C(=O)O)c1O [Compound 14] | 31 µg/mL (≈ 36.1 µM) | 16 µg/mL (≈ 18.6 µM) | 250 µg/mL (≈ 291 µM) | – | – | – | – | –
COc1c(NC(=O)c2ccc(NC(=O)c3ccc(NC(=O)[C@@H](Cc4c[nH]cn4)NC(=O)c4ccc(NC(=O)/C(C)=C/c5ccc(O)cc5)cc4)cc3)c(OC)c2O)ccc(C(=O)O)c1O [Compound 15, D-His-albicidin] | 125 µg/mL (≈ 141 µM) | 125 µg/mL (≈ 141 µM) | 1000 µg/mL (≈ 1130 µM) | 8000 µg/mL (≈ 9050 µM) | – | – | – | –
COc1c(NC(=O)c2ccc(NC(=O)c3ccc(NC(=O)[C@H](Cc4c[nH]nn4)NC(=O)c4ccc(NC(=O)/C(C)=C/c5ccc(F)cc5)cc4)cc3)c(OC)c2O)ccc(C(=O)O)c1O [Compound 18] | 31 µg/mL (≈ 35 µM) | ≤ 16 µg/mL | 125 µg/mL (≈ 141 µM) | 250 µg/mL (≈ 282 µM) | – | – | – | –
COc1c(NC(=O)c2ccc(NC(=O)c3ccc(NC(=O)[C@H](CN(C)C)NC(=O)c4ccc(NC(=O)c5ccc(O)cc5)cc4)cc3)c(OC)c2O)ccc(C(=O)O)c1O [Compound 19] | 2000 µg/mL (≈ 2440 µM) | 500 µg/mL (≈ 609 µM) | 4000 µg/mL (≈ 4870 µM) | ≥ 8000 µg/mL | – | – | – | –
CCOc1c(NC(=O)c2ccc(NC(=O)c3ccc(NC(=O)[C@H](Cc4c[nH]nn4)NC(=O)c4ccc(NC(=O)/C(C)=C/c5ccc(O)cc5)cc4)cc3)c(OCC)c2O)ccc(C(=O)O)c1O [Compound 20] | 16 µg/mL (≈ 17.5 µM) | 16 µg/mL (≈ 17.5 µM) | 31 µg/mL (≈ 34 µM) | 500 µg/mL (≈ 548 µM) | – | – | – | –
COc1c(NC(=O)c2ccc(NC(=O)c3ccc(N(C)C(=O)[C@H](Cc4c[nH]nn4)NC(=O)c4ccc(NC(=O)/C(C)=C/c5ccc(O)cc5)cc4)cc3)c(OC)c2O)ccc(C(=O)O)c1O [Compound 22] | ≥ 8000 µg/mL | 2000 µg/mL (≈ 2220 µM) | ≥ 8000 µg/mL | ≥ 8000 µg/mL | – | – | – | –
COc1c(NC(=O)c2ccc(NC(=O)c3ccc(NC(=O)[C@H](Cc4c[nH]nn4)NC(=O)c4ccc(NC(=O)/C(C)=C/c5ccc(O)cc5)cc4)c(OC)c3O)c(OC)c2O)ccc(C(=O)O)c1O [Compound 23] | ≥ 8000 µg/mL | 2000 µg/mL (≈ 2150 µM) | ≥ 8000 µg/mL | ≥ 8000 µg/mL | – | – | – | –
COc1c(NC(=O)c2ccc(NC(=O)c3ccc(NC(=O)[C@H](Cc4cnn[nH]4)NC(=O)c4ccc(NC(=O)/C(C)=C/c5ccc(O)cc5)cc4)c(O)c3)c(OC)c2O)ccc(C(=O)O)c1O [Compound 24] | 125 µg/mL (≈ 139 µM) | 63 µg/mL (≈ 69.9 µM) | 1000 µg/mL (≈ 1110 µM) | 8000 µg/mL (≈ 8880 µM) | – | – | – | –
COc1c(NC(=O)c2ccc(NC(=O)c3ccc(NC(=O)[C@H](Cc4cnn[nH]4)NC(=O)c4ccc(NC(=O)/C(C)=C/c5ccc(O)cc5)cc4)cc3O)c(OC)c2O)ccc(C(=O)O)c1O [Compound 25] | 31 µg/mL (≈ 34.4 µM) | 16 µg/mL (≈ 17.8 µM) | 250 µg/mL (≈ 278 µM) | 4000 µg/mL (≈ 4440 µM) | – | – | – | –
COc1ccc(C#Cc2ccc(C(=O)N[C@@H](Cc3c[nH]nn3)C(=O)Nc3ccc(C(=O)Nc4ccc(C(=O)Nc5ccc(C(=O)O)c(O)c5OC)c(O)c4OC)cc3)cc2)cc1 [Compound 26] | – | – | – | – | 63 µg/mL (≈ 75 µM) | ≤ 16 µg/mL | 250 µg/mL (≈ 298 µM) | 500 µg/mL (≈ 595 µM)
